{"source": "PubChem BioAssay (NCI)", "test_in_all_cases": "inhibition of tumour cell growth, NCI panel, 48 h", "key": {"A498 renal": {"test_system": "A498 renal"}, "NCI-H23 lung": {"test_system": "NCI-H23 lung"}, "SNB-75 CNS": {"test_system": "SNB-75 CNS"}, "T-47D breast": {"test_system": "T-47D breast"}, "SF-295 CNS": {"test_system": "SF-295 CNS"}, "TK-10 renal": {"test_system": "TK-10 renal"}, "CAKI-1 renal": {"test_system": "CAKI-1 renal"}, "HCT-15 colon": {"test_system": "HCT-15 colon"}, "CCRF-CEM leukemia": {"test_system": "CCRF-CEM leukemia"}, "IGROV1 ovarian": {"test_system": "IGROV1 ovarian"}, "M14 melanoma": {"test_system": "M14 melanoma"}, "OVCAR-3 ovarian": {"test_system": "OVCAR-3 ovarian"}, "DU-145 prostate": {"test_system": "DU-145 prostate"}, "RXF 393 renal": {"test_system": "RXF 393 renal"}, "RPMI-8226 leukemia": {"test_system": "RPMI-8226 leukemia"}, "UACC-257 melanoma": {"test_system": "UACC-257 melanoma"}, "SN12C renal": {"test_system": "SN12C renal"}, "786-0 renal": {"test_system": "786-0 renal"}, "OVCAR-4 ovarian": {"test_system": "OVCAR-4 ovarian"}, "MDA-MB-435": {"test_system": "MDA-MB-435"}, "SK-MEL-5 melanoma": {"test_system": "SK-MEL-5 melanoma"}, "COLO 205 colon": {"test_system": "COLO 205 colon"}, "BT-549 breast": {"test_system": "BT-549 breast"}, "OVCAR-8 ovarian": {"test_system": "OVCAR-8 ovarian"}, "HS 578T breast": {"test_system": "HS 578T breast"}, "NCI-H460 lung": {"test_system": "NCI-H460 lung"}, "UO-31 renal": {"test_system": "UO-31 renal"}, "NCI-H522 lung": {"test_system": "NCI-H522 lung"}, "HT29 colon": {"test_system": "HT29 colon"}}, "note": "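Step 1: Grow cells in 96-well plates. Step 2: Expose to compound for 48 hours at 5 concentrations. Step 3: Interpolate endpoints linearly; if unreached, use highest concentration. GI50 marks 50% less growth. TGI is the concentration that stops growth completely.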", "data": [{"smiles": "CC1(C)CC(=O)c2c(C(F)(F)F)nn(-c3ccc(C(N)=O)c(NC4CCC(OC(=O)CN)CC4)c3)c2C1", "note": "(configuration not stated)", "values": [{"measurement": "TGI", "setting": "A498 renal", "result": "> 100000", "unit": "nM"}, {"measurement": "GI50", "setting": "NCI-H23 lung", "result": 93.5, "unit": "nM"}, {"measurement": "TGI", "setting": "NCI-H23 lung", "result": "> 100000", "unit": "nM"}, {"measurement": "GI50", "setting": "SNB-75 CNS", "result": 634, "unit": "nM"}, {"measurement": "TGI", "setting": "SNB-75 CNS", "result": "> 100000", "unit": "nM"}, {"measurement": "GI50", "setting": "T-47D breast", "result": 46.1, "unit": "nM"}, {"measurement": "TGI", "setting": "T-47D breast", "result": "> 100000", "unit": "nM"}, {"measurement": "GI50", "setting": "SF-295 CNS", "result": 59.3, "unit": "nM"}, {"measurement": "TGI", "setting": "SF-295 CNS", "result": "> 100000", "unit": "nM"}, {"measurement": "GI50", "setting": "TK-10 renal", "result": 59.2, "unit": "nM"}, {"measurement": "TGI", "setting": "TK-10 renal", "result": "> 100000", "unit": "nM"}, {"measurement": "GI50", "setting": "CAKI-1 renal", "result": 2900, "unit": "nM"}, {"measurement": "TGI", "setting": "CAKI-1 renal", "result": "> 100000", "unit": "nM"}, {"measurement": "GI50", "setting": "HCT-15 colon", "result": 120, "unit": "nM"}, {"measurement": "TGI", "setting": "HCT-15 colon", "result": "> 93600", "unit": "nM"}, {"measurement": "GI50", "setting": "CCRF-CEM leukemia", "result": 33.9, "unit": "nM"}, {"measurement": "TGI", "setting": "CCRF-CEM leukemia", "result": "> 100000", "unit": "nM"}, {"measurement": "GI50", "setting": "IGROV1 ovarian", "result": 42.2, "unit": "nM"}, {"measurement": "TGI", "setting": "IGROV1 ovarian", "result": "> 39200", "unit": "nM"}, {"measurement": "GI50", "setting": "M14 melanoma", "result": 60.8, "unit": "nM"}, {"measurement": "TGI", "setting": "M14 melanoma", "result": 26500, "unit": "nM"}, {"measurement": "GI50", "setting": "OVCAR-3 ovarian", "result": 159, "unit": "nM"}, {"measurement": "TGI", "setting": "OVCAR-3 ovarian", "result": "> 100000", "unit": "nM"}, {"measurement": "GI50", "setting": "DU-145 prostate", "result": 88.3, "unit": "nM"}, {"measurement": "TGI", "setting": "DU-145 prostate", "result": "> 100000", "unit": "nM"}, {"measurement": "GI50", "setting": "RXF 393 renal", "result": 157, "unit": "nM"}, {"measurement": "TGI", "setting": "RXF 393 renal", "result": 28800, "unit": "nM"}, {"measurement": "GI50", "setting": "RPMI-8226 leukemia", "result": 356, "unit": "nM"}, {"measurement": "TGI", "setting": "RPMI-8226 leukemia", "result": "> 60100", "unit": "nM"}, {"measurement": "GI50", "setting": "UACC-257 melanoma", "result": 29, "unit": "nM"}, {"measurement": "TGI", "setting": "UACC-257 melanoma", "result": 97.2, "unit": "nM"}, {"measurement": "GI50", "setting": "SN12C renal", "result": 69.2, "unit": "nM"}, {"measurement": "TGI", "setting": "SN12C renal", "result": "> 100000", "unit": "nM"}, {"measurement": "GI50", "setting": "786-0 renal", "result": 16200, "unit": "nM"}, {"measurement": "TGI", "setting": "786-0 renal", "result": "> 100000", "unit": "nM"}, {"measurement": "GI50", "setting": "OVCAR-4 ovarian", "result": "> 25100", "unit": "nM"}, {"measurement": "TGI", "setting": "OVCAR-4 ovarian", "result": "> 100000", "unit": "nM"}, {"measurement": "GI50", "setting": "MDA-MB-435", "result": 41.8, "unit": "nM"}, {"measurement": "TGI", "setting": "MDA-MB-435", "result": "> 47300", "unit": "nM"}, {"measurement": "GI50", "setting": "SK-MEL-5 melanoma", "result": 74.2, "unit": "nM"}, {"measurement": "TGI", "setting": "SK-MEL-5 melanoma", "result": 18300, "unit": "nM"}, {"measurement": "GI50", "setting": "COLO 205 colon", "result": 28.9, "unit": "nM"}, {"measurement": "TGI", "setting": "COLO 205 colon", "result": 8030, "unit": "nM"}, {"measurement": "GI50", "setting": "BT-549 breast", "result": 5240, "unit": "nM"}, {"measurement": "TGI", "setting": "BT-549 breast", "result": 41700, "unit": "nM"}, {"measurement": "GI50", "setting": "OVCAR-8 ovarian", "result": 59.3, "unit": "nM"}, {"measurement": "TGI", "setting": "OVCAR-8 ovarian", "result": "> 100000", "unit": "nM"}, {"measurement": "GI50", "setting": "HS 578T breast", "result": 9730, "unit": "nM"}, {"measurement": "TGI", "setting": "HS 578T breast", "result": "> 100000", "unit": "nM"}, {"measurement": "GI50", "setting": "NCI-H460 lung", "result": 50.2, "unit": "nM"}, {"measurement": "TGI", "setting": "NCI-H460 lung", "result": "> 100000", "unit": "nM"}, {"measurement": "GI50", "setting": "UO-31 renal", "result": 418, "unit": "nM"}, {"measurement": "TGI", "setting": "UO-31 renal", "result": "> 27100", "unit": "nM"}, {"measurement": "GI50", "setting": "NCI-H522 lung", "result": 38.7, "unit": "nM"}, {"measurement": "TGI", "setting": "NCI-H522 lung", "result": 20100, "unit": "nM"}, {"measurement": "GI50", "setting": "HT29 colon", "result": 32.1, "unit": "nM"}, {"measurement": "TGI", "setting": "HT29 colon", "result": "> 100000", "unit": "nM"}]}]}
